Source: ChEMBL document CHEMBL4138203, “Recent developments in anti-Trichomonas research: An update review” (Eur J Med Chem, 2018)
≈ marks a conversion by molar mass, not a printed value.

Key:
Trichomonas vaginalis [1] = test: Anti-Trichomonas activity against Trichomonas vaginalis after 24 hrs by inverted microscopic analysis; assay type: functional
Trichomonas vaginalis [2] = test: Anti-Trichomonas activity against metronidazole-resistant Trichomonas vaginalis after 48 hrs by trypan blue exclusion assay; assay type: functional
Trichomonas vaginalis [3] = test: Anti-Trichomonas activity against metronidazole-susceptible Trichomonas vaginalis after 48 hrs by trypan blue exclusion assay; assay type: functional
Homo sapiens [4] = species on record: Homo sapiens; test: Spermicidal activity in human semen assessed as induction of sperm immobilization 0.0015% after 30 secs in presence of sapindus saponin
Trichomonas vaginalis [5] = test: Anti-Trichomonas activity against Trichomonas vaginalis; assay type: functional, organism-based
Trichomonas vaginalis [6] = test: Anti-Trichomonas activity against metronidazole-susceptible Trichomonas vaginalis ATCC 30001 assessed as inhibition of parasite growth at 5.5 mM measured at 5 to 60 mins in presence of NH4Cl by trypan blue-based assay; assay type: functional
Trichomonas vaginalis [7] = test: Anti-Trichomonas activity against metronidazole-resistant Trichomonas vaginalis ATCC 50138 assessed as inhibition of parasite growth at 5.5 mM measured at 5 to 60 mins in presence of NH4Cl by trypan blue-based assay; assay type: functional
Trichomonas vaginalis [8] = test: Anti-Trichomonas activity against metronidazole-susceptible Trichomonas vaginalis ATCC 30236 after 24 hrs by hemocytometry; assay type: functional, organism-based; settings: ATCC 30236, 24 h
Trichomonas vaginalis [9] = test: Anti-Trichomonas activity against Metronidazole-resistant Trichomonas vaginalis 085 ATCC 50143 after 48 hrs by inverted microscopic analysis; assay type: functional; settings: 085 ATCC 50143, 48 h
Trichomonas vaginalis [10] = test: Anti-Trichomonas activity against Trichomonas vaginalis JT assessed as reduction in parasite growth after 24 hrs by haemocytometry; assay type: functional, organism-based
Trichomonas vaginalis [11] = test: Anti-Trichomonas activity against Trichomonas vaginalis JT assessed as reduction in parasite growth after 48 hrs by haemocytometry; assay type: functional, organism-based
Trichomonas vaginalis [12] = test: Anti-Trichomonas activity against Trichomonas vaginalis at 100 uM; assay type: functional
Trichomonas vaginalis [13] = test: Anti-Trichomonas activity against metronidazole-resistant Trichomonas vaginalis JT after 48 hrs by hemocytometry; assay type: functional, organism-based
Homo sapiens [14] = species on record: Homo sapiens; test: Spermicidal activity in human semen assessed as induction of sperm immobilization; assay type: functional
Trichomonas vaginalis [15] = test: Anti-Trichomonas activity against Trichomonas vaginalis isolate 1 at 250 uM after 48 hrs by microscopic analysis; assay type: functional; settings: isolate 1, 48 h
Trichomonas vaginalis [16] = test: Anti-Trichomonas activity against Trichomonas vaginalis isolate 2 at 250 uM after 48 hrs by microscopic analysis; assay type: functional; settings: isolate 2, 48 h
Trichomonas vaginalis [17] = test: Anti-Trichomonas activity against metronidazole-resistant Trichomonas vaginalis IR78 ATCC 50138 cultured in TYI-S-33 media assessed as reduction in parasite growth after 30 mins by haemocytometry; assay type: functional, organism-based; settings: IR78 ATCC 50138, 0.5 h
Trichomonas vaginalis [18] = test: Anti-Trichomonas activity against metronidazole-resistant Trichomonas vaginalis IR78 ATCC 50138 cultured in PBS/BSA media assessed as reduction in parasite growth after 30 mins by haemocytometry; assay type: functional, organism-based; settings: IR78 ATCC 50138, 0.5 h
Trichomonas vaginalis [19] = test: Anti-Trichomonas activity against Trichomonas vaginalis by quantitative fluorescent method; assay type: functional
Trichomonas vaginalis [20] = test: Anti-Trichomonas activity against Metronidazole-resistant Trichomonas vaginalis isolate 085 ATCC 50143 infected in Swiss Webster mouse at 25 mg/kg, po dosed for 4 days measured at 24 hrs post last dose by microscopic analysis; assay type: functional
Trichomonas vaginalis [21] = test: Potency index, ratio of Metronidazole MIC to compound MIC for anti-trichomonas activity against Metronidazole-resistant Trichomonas vaginalis 085 ATCC 50143; assay type: functional
[22] = Trichomonas vaginalis, read-out: MIC

Compound: COC(=O)C1=CO[C@H](O[C@@H]2O[C@H](CO)[C@@H](O)[C@H](O)[C@H]2O)[C@@]2(C)[C@@H](C)OC(=O)C(C)(C)[C@@H](C)OC(=O)C[C@@]12C
- MIC (Trichomonas vaginalis [1]): 6.25 µM (≈ 3.42 µg/mL)

Compound: C1CCNCC1.S=C(S)N1CCCC1 [listing 1 of 2 here]
- MIC (Trichomonas vaginalis [2]): 7.8 µg/mL
- MIC (Trichomonas vaginalis [3]): 1.56 µg/mL

Compound: O=C(SCC(CN1CCCC1)SSC(CSC(=O)N1CCCCC1)CN1CCCC1)N1CCCCC1 (centres undefined)
- Activity (Homo sapiens [4]): 100%

Compound: O=C(/C=C/c1ccc(O)c(O)c1)O[C@H](Cc1ccc(O)c(O)c1)C(=O)O [ROSMARINIC ACID]
- MIC (Trichomonas vaginalis [5]; [22]): 20 µg/mL (≈ 55.5 µM)

Compound: O=S(=O)(O)CCNCl
- inhibition at 5500 µM (Trichomonas vaginalis [6]): 100%
- inhibition at 5500 µM (Trichomonas vaginalis [7]): 100%

Compound: COc1c2c(cc(O)c1C(=O)C(C)C)OC(C)(C)C=C2
- IC50 (Trichomonas vaginalis [8]): 834 µM

Compound: N#CCCCN1CCN(C(=S)SSC(=S)N2CCN(CCCC#N)CC2)CC1
- MIC (Trichomonas vaginalis [2]): 3.12 to 50 µg/mL

Compound: Oc1cc(O)c2c(c1)O[C@H](c1ccc(O)c(O)c1)[C@H](O[C@]1(c3ccc(O)c(O)c3)Oc3cc(O)cc(O)c3[C@H](O)[C@H]1O)C2
- MIC (Trichomonas vaginalis [5]; [22]): > 2000 µg/mL

Compound: CCCCCCCCCCCCCCCCOP(=O)([O-])OCC[N+](C)(C)C [MILTEFOSINE]
- MIC (Trichomonas vaginalis [9]): 145 µM (≈ 59.1 µg/mL)
- IC50 (Trichomonas vaginalis [10]): 14.5 µM
- IC50 (Trichomonas vaginalis [11]): 20 µM

Compound: COC(=O)C1=CC[C@@H](O[C@@H]2O[C@H](CO)[C@@H](O)[C@H](O)[C@H]2O)C(CCC=O)[C@@H]1CC(=O)OCCc1ccc(O)c(O)c1 (some centres undefined)
- MIC (Trichomonas vaginalis [1]): 12.5 µM (≈ 7.11 µg/mL)

Compound: C1CCNC1.S=C(S)N1CCCC1 [listing 1 of 2 here]
- MIC (Trichomonas vaginalis [2]): 13.5 µM
- MIC (Trichomonas vaginalis [3]): 5.25 µM

Compound: C[C@H]1CC[C@]2(NC1)O[C@H]1C[C@H]3[C@@H]4CC[C@H]5C[C@@H](O[C@@H]6O[C@H](CO)[C@H](O[C@@H]7O[C@H](CO)[C@@H](O)[C@H](O[C@@H]8OC[C@@H](O)[C@H](O)[C@H]8O)[C@H]7O[C@@H]7O[C@H](CO)[C@@H](O)[C@H](O)[C@H]7O)[C@H](O)[C@H]6O)CC[C@]5(C)[C@H]4CC[C@]3(C)[C@H]1[C@@H]2C [TOMATINE]
- inhibition at 100 µM (Trichomonas vaginalis [12]): 103%

Compound: COC(=O)C1=CO[C@@H](O[C@@H]2O[C@H](CO)[C@@H](O)[C@H](O)[C@H]2O)[C@H]2[C@@H]1C=C[C@@]21C=C([C@H](C)OC(=O)/C=C/c2ccc(O)cc2)C(=O)O1
- MIC (Trichomonas vaginalis [1]): 12.5 µM (≈ 7.71 µg/mL)

Compound: CC(C)C(=O)C1=C(O)C(Cc2c(O)c3c(c(C(=O)C(C)C)c2O)OC(C)(C)C=C3)=C(O)C(C)(C)C1=O
- IC50 (Trichomonas vaginalis [8]): 122 µM

Compound: C=C(CO[C@@H]1O[C@H](CO)[C@@H](O)[C@H](O)[C@H]1O)[C@@H]1Cc2c(ccc3c2O[C@H]2COc4cc(OC)c(OC)cc4[C@H]2[C@@H]3O)O1
- MIC (Trichomonas vaginalis [1]): 6.25 µM (≈ 3.59 µg/mL)

Compound: COc1cc2c(c(OC)c1C(=O)C(C)C)C=CC(C)(C)O2
- IC50 (Trichomonas vaginalis [8]): 226 µM

Compound: OC1(c2ccc(-c3ccccc3)cc2)CN2CCC1CC2 (centres undefined)
- IC50 (Trichomonas vaginalis [13]): 46 µM

Compound: CCCCCCCCCCCCCCCCCCCCCCCC
- MIC (Trichomonas vaginalis [5]; [22]): 500 to 1000 µg/mL (≈ 1480 to 2950 µM)

Compound: Oc1cc(O)c2c(c1)O[C@H](c1cc(O)c(O)c(O)c1)[C@@H](O)[C@@H]2c1c(O)cc(O)c2c1O[C@H](c1cc(O)c(O)c(O)c1)[C@@H](O)C2
- MIC (Trichomonas vaginalis [5]; [22]): > 2000 µg/mL

Compound: OC[C@H]1O[C@@H](Oc2ccc(O)cc2)[C@H](O)[C@@H](O)[C@@H]1O [ARBUTIN]
- MIC (Trichomonas vaginalis [5]; [22]): 500 µg/mL (≈ 1840 µM)

Compound: CC1(C)CC[C@]2(C(=O)O)CC[C@]3(C)C(=CC[C@@H]4[C@@]5(C)CC[C@H](O[C@@H]6[C@@H](O)[C@H](O[C@@H]7O[C@H](CO)[C@@H](O)[C@H](O)[C@H]7O)O[C@H](CO)[C@H]6O)C(C)(C)[C@@H]5CC[C@]43C)[C@@H]2C1
- MIC (Trichomonas vaginalis [5]): 0.25%

Compound: FC(F)(F)c1ccc(OC(CCN2CCCC2)c2ccccc2)cc1 (centres undefined)
- MIC (Trichomonas vaginalis [2]): 12.5 to 50 µg/mL
- MEC (Homo sapiens [14]): 1%

Compound: CCCCCCCCCCCCCCCC(=O)O [PALMITIC ACID]
- MIC (Trichomonas vaginalis [5]; [22]): 500 to 1000 µg/mL (≈ 1950 to 3900 µM)

Compound: C1CCNCC1.S=C(S)N1CCCC1 [listing 2 of 2 here]
- MEC (Homo sapiens [14]): 61.5 mg/L

Compound: COc1cc2c(c(O)c1C(=O)C(C)C)C=CC(C)(C)O2
- IC50 (Trichomonas vaginalis [8]): 1230 µM

Compound: C[C@@H](CCC1(O)OC2CC3C4C[C@H](O[C@H]5O[C@@H](C)[C@H](O)[C@@H](O[C@H]6O[C@@H](C)[C@H](O)[C@@H](O)[C@@H]6O)[C@@H]5O)[C@H]5CC(O)CC[C@]5(C)C4CC[C@]3(C)C2[C@@H]1C)CO[C@@H]1O[C@H](CO)[C@@H](O)[C@H](O)[C@H]1O (some centres undefined)
- MIC (Trichomonas vaginalis [1]): 6.25 to 50 µM (≈ 5.66 to 45.3 µg/mL)

Compound: COc1cc(/C=C/C(=O)CC(=O)/C=C/c2ccc(O)c(OC)c2)ccc1O [CURCUMIN]
- EC50 (Trichomonas vaginalis [5]; Trichomonas vaginalis): 100 µg/mL (≈ 271 µM)

Compound: C[C@@H](CCC1(O)OC2CC3C4C[C@H](O[C@H]5O[C@@H](C)[C@H](O)[C@@H](O[C@H]6O[C@@H](C)[C@H](O)[C@@H](O)[C@@H]6O)[C@@H]5O)[C@H]5CC(=O)CC[C@]5(C)C4CC[C@]3(C)C2[C@@H]1C)CO[C@@H]1O[C@H](CO)[C@@H](O)[C@H](O)[C@H]1O (some centres undefined)
- MIC (Trichomonas vaginalis [1]): 6.25 to 50 µM (≈ 5.64 to 45.2 µg/mL)

Compound: Cc1ncc([N+](=O)[O-])n1CCO [METRONIDAZOLE]
- MIC (Trichomonas vaginalis [2]): 1 to 111 µM
- MEC (Homo sapiens [14]): 1%

Compound: CCCCCCCCCCCC(=O)O[C@H]1C=C2CCN3Cc4cc5c(cc4[C@H]([C@@H]1O)[C@@H]23)OCO5
- inhibition at 250 µM (Trichomonas vaginalis [15]): 100%
- inhibition at 250 µM (Trichomonas vaginalis [16]): 100%

Compound: CCCCCCCCN=c1ccn(CCCCCCCCCCn2ccc(=NCCCCCCCC)cc2)cc1.Cl.Cl [OCTENIDINE HYDROCHLORIDE]
- EC50 (Trichomonas vaginalis [17]): 0.68 to 2.11 µg/mL
- EC50 (Trichomonas vaginalis [18]): 0.68 to 2.11 µg/mL

Compound: C[C@H]1[C@H](C)CC[C@]2(C(=O)O[C@@H]3O[C@H](CO)[C@@H](O)[C@H](O)[C@H]3O)CC[C@]3(C)C(=CC[C@@H]4[C@@]5(C)CC[C@H](O[C@@H]6O[C@H](CO[C@@H]7O[C@@H](C)[C@H](O)[C@@H](O)[C@H]7O[C@@H]7O[C@H](CO)[C@@H](O)[C@H](O)[C@H]7O)[C@@H](O)[C@@H]6O)C(C)(C)[C@@H]5CC[C@]43C)[C@H]12
- MIC (Trichomonas vaginalis [19]): 0.05%

Compound: c1cc(CCCc2ccc(-c3nc4ccccc4[nH]3)cc2)cc(-c2nc3ccccc3[nH]2)c1
- MIC (Trichomonas vaginalis [9]): 26 µM (≈ 11.1 µg/mL)
- Activity (Trichomonas vaginalis [20]): 100%
- Ratio (Trichomonas vaginalis [21]): 5.5

Compound: CN(CCC(Oc1ccc(C(F)(F)F)cc1)c1ccccc1)C(=S)SCN1CCCC1 (centres undefined)
- MIC (Trichomonas vaginalis [2]): 14 µg/mL
- MEC (Homo sapiens [14]): 0.05%

Compound: C1CCNC1.S=C(S)N1CCCC1 [listing 2 of 2 here]
- MEC (Homo sapiens [14]): 145 µM

Compound: CC(C)=CCC/C(C)=C/CO [GERANIOL]
- IC50 (Trichomonas vaginalis [5]; Trichomonas vaginalis): 171 µg/mL (≈ 1110 µM)

Compound: CC1(C)CC[C@]2(C(=O)O)[C@H](O)C[C@]3(C)C(=CC[C@@H]4[C@@]5(C)CC[C@H](O[C@@H]6O[C@H](C(=O)O)[C@@H](O)[C@H](O)[C@H]6O)[C@@](C)(C=O)[C@@H]5CC[C@]43C)[C@@H]2C1
- MIC (Trichomonas vaginalis [5]): 0.025%
